Among the data in patent publication US9944598B2, “Mono- or di-substituted indole derivatives as dengue viral replication inhibitors” (priority 2014, dated 2018) are EC50 values, retold here.

Holding throughout (format): cell-based
For assay [1], the system named is DENV-3 strain H87 prototype. Kind of assay: Tetravalent RT-qPCR assay Protocol B, serotype 3. The note with it: Dengue virus, DENV3, 168 h, RT-qPCR serotype 3 H87, Vero cells, 7 days. Here is the method: Vero cells (4×10^4) were seeded in 96-well plates. After one day, cell culture medium was replaced with 100 μL assay medium containing a 2×, 3× or 5× serial dilution of the compound (concentration range: 50 μg/mL-0.00038 μg/mL, 50 μg/mL-0.0076 μg/mL, and 50 μg/mL-0.00013 μg/mL, respectively) and 100 μL of dengue virus dilution, where a Ct of ˜20 is achieved in RTqPCR. Following a 2 hour incubation period, the cell monolayer was washed 3 times with assay medium to remove residual, non-adsorbed virus and cultures were further incubated for either 4 days (DENV-2 NGC-Tongalike) or 7 days (DENV-1 Djibouti strain D1/H/IMTSSA/98/606, DENV-3 strain H87 prototype, DENV-4 strain H241) in the presence of the inhibitor. Supernatant was harvested and viral RNA load was determined by real-time quantitative RT-PCR. The 50% effective concentration (EC50), which is defined as the compound concentration that is required to inhibit viral RNA replication by 50%, was determined using logarithmic interpolation (Tables 7 and 8).
RNA was isolated from 100 μL supernatant with the NucleoSpin 96 Virus kit (Filter Service, Düren, Germany) as described by the manufacturer. The sequences of the TaqMan primers (DENV-For, DENV-Rev; Table 5) and TaqMan probes (DENV-Probe Table 5) were selected from non-structural gene 3 (NS3) or NSS, of the respective flaviviruses using Primer Express software (version 2.0; Applied Biosystems, Lennik, Belgium). The TaqMan probe was fluorescently labelled with 6-carboxyfluorescein (FAM) at the 5′ end as the reporter dye, and with minor groove binder (MGB) at the 3′ end as the quencher (Table 5). One-step, quantitative RT-PCR was performed in a total volume of 25 μL, containing 13.9375 μL H2O, 6.25 μL master mix (Eurogentec, Seraing, Belgium), 0.375 μL forward primer, 0.375 μL reverse primer, 1 μL probe, 0.0625 μL reverse transcriptase (Eurogentec) and 3 μL sample. RT-PCR was performed using the ABI 7500 Fast Real-Time PCR System (Applied Biosystems, Branchburg, N.J., USA) using the following conditions: 30 min at 48° C. and 10 min at 95° C., followed by 40 cycles of 15 s at 95° C. and 1 min at 60° C. The data was analyzed using the ABI PRISM 7500 SDS software (version 1.3.1; Applied Biosystems). For absolute quantification, standard curves were generated using 10-fold dilutions of template preparations of known concentrations.
(In qPCR the cycle at which signal appears reflects the starting amount.)

For the next assay, the system named is DENV-4 strain H241. Kind of assay: Tetravalent RT-qPCR assay Protocol A, serotype 4 H241. Particulars: Dengue virus, DENV4, 72 h, RT-qPCR serotype 4 H241, Vero cells, 3 days. Here is the method:
(§1) The antiviral activity of the compounds of the invention was tested against DENV-1 strain TC974#666 (NCPV), DENV-2 strain 16681, DENV-3 strain H87 (NCPV) and DENV-4 strains H241 (NCPV) and EDEN (SG/06K2270DK1/2005; GenBank accession number QG398256) in a RT-qPCR assay. Therefore, Vero cells were infected with either DENV-1, or -2, or -3, or -4 in the presence or absence of test compounds. At day 3 post-infection, the cells were lysed and cell lysates were used to prepare cDNA of both a viral target (the 3′UTR of DENV; table 2) and a cellular reference gene (β-actin, table 2). Subsequently, a duplex real time PCR was performed on a Lightcycler480 instrument. The generated Cp value is inversely proportional to the amount of RNA expression of these targets. Inhibition of DENV replication by a test compound result in a shift of Cp's for the 3′UTR gene. On the other hand, if a test compound is toxic to the cells, a similar effect on β-actin expression will be observed. The comparative ΔΔCp method is used to calculate EC50, which is based on the relative gene expression of the target gene (3′UTR) normalized with the cellular housekeeping gene (β-actin). In addition, CC50 values were determined based on the Cp values acquired for the housekeeping gene β-actin.
(§2) The culture medium consisted of minimal essential medium supplemented with 2% of heat-inactivated fetal calf serum, 0.04% gentamycin (50 mg/mL) and 2 mM of L-glutamine. Vero cells, obtained from ECACC, were suspended in culture medium and 75 μL/well was added in 96-well plates (10000 cells/well), which already contain the antiviral compounds. Typically, these plates contain a 4-fold serial dilution of 9 dilution steps of the test compound at 200 times the final concentration in 100% DMSO (500 nL; final concentration range: 25 μM-0.00038 μM). In addition, each plate contains wells which are assigned as virus controls (containing cells and virus in the absence of compound) and cell controls (containing cells in the absence of virus and compound). Once the cells were added in the plates, the plates were incubated in a fully humidified incubator (37° C., 5% CO2) until the next day. Then, DENV-1 strain TC974#666, DENV-2 strain 16681, DENV-3 strain H87 or DENV-4 strains H241 or EDEN were added. […] In parallel, 25 μL of culture medium was added to the cell controls. Next, the plates were incubated for 3 days in a fully humidified incubator (37° C., 5% CO2). After 3 days, the supernatant was removed from the wells and the cells were washed twice with ice-cold PBS (˜100 μL). The cell pellets within the 96-well plates were stored at −80° C. for at least 1 day. Next, RNA was extracted using the Cells-to-CT™ lysis kit, according to the manufacture's guideline (Applied Biosystems). The cell lysates can be stored at −80° C. or immediately used in the reverse transcription step.
(§3) In preparation of the reverse transcription step, mix A (table 3A) was prepared and 7.57 μL/well was dispensed in a 96-well plate. After addition of 5 μL of the cell lysates, a five minute denaturation step at 75° C. was performed (table 3B). Afterwards, 7.43 μL of mix B was added (table 3C) and the reverse transcription step was initiated (table 3D) to generate cDNA.
(§4) Finally, a RT-qPCR mix was prepared, mix C (table 4A), dispensed in 96-well LightCycler qPCR plates to which 3 μL of cDNA was added and the qPCR was performed according to the conditions in table 4B on a LightCycler 480.
(§5) Using the LightCycler software and an in-house LIMS system, dose response curves for each compound were calculated and the half maximal effective concentration (EC50) and the half maximal cytotoxic concentration (CC50) were determined (Tables 6-9).

For the next assay, the system named is DENV-1 strain TC974#666. Kind of assay: Tetravalent RT-qPCR assay Protocol A, serotype 1. Particulars: Dengue virus, DENV1, 72 h, RT-qPCR serotype 1 TC974#666, Vero cells, 3 days. Here is the method:
as §1, §2, §3, §4, §5

The subject of another assay is DENV-2 strain 16681. Kind of assay: Tetravalent RT-qPCR assay Protocol A, serotype 2. Particulars: Dengue virus, DENV2, 72 h, RT-qPCR serotype 2 16681, Vero cells, 3 days. Here is the method:
as §1, §2, §3, §4, §5

pEC50: −log10 of the molar value.

As to `COc1cc(NC(C(=O)c2c[nH]c3cc(OC)c(F)cc23)c2ccc(Cl)cc2OC)cc(OCCO)c1` (single isomer, unassigned) [Compound 7A, 2-(4-chloro-2-methoxyphenyl)-1-(5-fluoro-6-methoxy-1H-indol-3-yl)-2-((3-(2-hydroxyethoxy)-5-methoxyphenyl)amino)ethanone], the pEC50 in assay [1] was more than 7.77; in the assay with DENV-4 strain H241, 6.64; in the assay with DENV-1 strain TC974#666, 7.80; with DENV-2 strain 16681, 9.04.
On the same counts, the results for `COc1cc(NC(C(=O)c2c[nH]c3c(F)cc(C)cc23)c2ccc(Cl)cc2OC)cc(OCCO)c1` (single isomer, unassigned) [Compound 10A, 2-(4-chloro-2-methoxyphenyl)-1-(7-fluoro-5-methyl-1H-indol-3-yl)-2-((3-(2-hydroxyethoxy)-5-methoxyphenyl)amino)ethanone] are 7.57, 6.49, 7.85 and 8.49.
Taken in the same sequence, the figures for `COc1cc(NC(C(=O)c2c[nH]c3c(C)c(Cl)ccc23)c2ccc(Cl)cc2OC)cc(OCCO)c1` (single isomer, unassigned) [Compound 3A, 2-(4-chloro-2-methoxyphenyl)-1-(6-chloro-7-methyl-1H-indol-3-yl)-2-((3-(2-hydroxyethoxy)-5-methoxyphenyl)amino)ethanone] were 7.70, 6.74, 8.28 and 9.62.
In the case of `COc1cc(NC(C(=O)c2c[nH]c3c(C)cc(F)cc23)c2ccc(Cl)cc2OC)cc(OCCO)c1` (single isomer, unassigned) [Compound 8A, 2-(4-chloro-2-methoxyphenyl)-1-(5-fluoro-7-methyl-1H-indol-3-yl)-2-((3-(2-hydroxyethoxy)-5-methoxyphenyl)amino)ethanone], the pEC50 in assay [1] is 7.49; in the assay with DENV-4 strain H241 it was 6.52; in the assay with DENV-1 strain TC974#666, 8.02; in the assay with DENV-2 strain 16681, 8.92.
Taken in the same sequence, the figures for `COc1cc(NC(C(=O)c2c[nH]c3cc(F)ccc23)c2ccc(Cl)cc2OC)cc(OCCO)c1` (single isomer, unassigned) [Compound 1A, 2-(4-chloro-2-methoxyphenyl)-1-(6-fluoro-1H-indol-3-yl)-2-((3-(2-hydroxyethoxy)-5-methoxyphenyl)amino)ethanone] were more than 7.82, 6.62, 8.11 and 8.96.
On the same counts, the results for `COc1cc(NC(C(=O)c2c[nH]c3cc(OC)ccc23)c2ccc(Cl)cc2OC)cc(OCCO)c1` (single isomer, unassigned) [Compound 5A, 2-(4-chloro-2-methoxyphenyl)-2-((3-(2-hydroxyethoxy)-5-methoxyphenyl)amino)-1-(6-methoxy-1H-indol-3-yl)ethanone] are 7.60, 6.49, 7.89 and 9.30.
On the same counts, the results for `COc1cc(NC(C(=O)c2c[nH]c3c(F)c(F)ccc23)c2ccc(Cl)cc2OC)cc(OCCO)c1` (single isomer, unassigned) [Compound 11B, 2-(4-chloro-2-methoxyphenyl)-1-(6,7-difluoro-1H-indol-3-yl)-2-((3-(2-hydroxyethoxy)-5-methoxyphenyl)amino)ethanone] are 7.59, 6.46, 7.74 and 9.00.
`COc1cc(NC(C(=O)c2c[nH]c3c(C)c(F)ccc23)c2ccc(Cl)cc2OC)cc(OCCO)c1` (single isomer, unassigned) [Compound 2A, 2-(4-chloro-2-methoxyphenyl)-1-(6-fluoro-7-methyl-1H-indol-3-yl)-2-((3-(2-hydroxyethoxy)-5-methoxyphenyl)amino)ethanone]: the pEC50 was 7.68 in assay [1], 6.59 in the assay with DENV-4 strain H241, 8.15 in the assay with DENV-1 strain TC974#666 and 9.07 in the assay on DENV-2 strain 16681.
On the same counts, the results for `COc1cc(NC(C(=O)c2c[nH]c3cc(F)c(F)cc23)c2ccc(Cl)cc2OC)cc(OCCO)c1` (single isomer, unassigned) [Compound 9A, 2-(4-chloro-2-methoxyphenyl)-1-(5,6-difluoro-1H-indol-3-yl)-2-((3-(2-hydroxyethoxy)-5-methoxyphenyl)amino)ethanone] are 7.74, 6.62, 8.30 and 9.10.
On the same counts, the results for `COc1cc(NC(C(=O)c2c[nH]c3cc(Cl)ccc23)c2ccc(Cl)cc2OC)cc(OCCO)c1` (single isomer, unassigned) [Compound 4A, 1-(6-chloro-1H-indol-3-yl)-2-(4-chloro-2-methoxyphenyl)-2-((3-(2-hydroxyethoxy)-5-methoxyphenyl)amino)ethanone] are 7.54, 6.62, 8.11 and 9.36.
Taken in the same sequence, the figures for `COc1cc(NC(C(=O)c2c[nH]c3cc(OC)c(C)cc23)c2ccc(Cl)cc2OC)cc(OCCO)c1` (single isomer, unassigned) [Compound 6A, 2-(4-chloro-2-methoxyphenyl)-2-((3-(2-hydroxyethoxy)-5-methoxyphenyl)amino)-1-(6-methoxy-5-methyl-1H-indol-3-yl)ethanone] were more than 7.82, 7.08, 8.44 and 9.27.

In general, pEC50 refers to −log10 of the EC50, conventionally taken in molar units.
